Source: PMC12040169 (PLOS Biology, 2025)

Test: in vitro
Conditions: human, hela cells, % viability

Compound | viability at 28.5 h, 10 µM
NNC(=O)c1cc2ccccc2cc1NS(=O)(=O)c1ccccc1 [CBK263261] | 84.4%
O=C(CSCc1nc2ccccc2[nH]1)Nc1ccc2ccccc2c1 [CBK263262] | 90.5%
Cc1ccc(C(=O)O/N=C(\N)c2ccccn2)cc1 [CBK263265] | 90.9%
Cc1ccc(S(=O)(=O)NCCOc2ccc(Cl)cc2)cc1[N+](=O)[O-] [CBK263268] | 106%
O=C(CN(c1cccc(Cl)c1)S(=O)(=O)c1ccccc1)Nc1cccc2cccnc12 [CBK263270] | 87.9%
Cc1oc(C(=O)Nc2ccc(C(=O)O)cc2)cc1COc1ccccc1 [CBK263273] | 94.2%
Cc1cccc(C)c1NC(=O)CSCC(=O)Nc1ccc2ccccc2c1 [CBK263274] | 94.2%
Cc1oc(C(=O)O)cc1CSCc1cc(C(=O)O)oc1C [CBK263275] | 101%
CC(C)C(=O)NC(c1ccco1)c1ccc2cccnc2c1O (centres unmarked) [CBK263277] | 96.5%
O=C(CSc1nc2sc3c(c2c(=O)n1-c1ccccc1)CCCC3)NCCc1ccccc1 [CBK263280] | 93.7%
Cc1ccn2c(-c3csc(Nc4ccc(C(=O)O)cc4)n3)c(C)nc2c1 [CBK263283B] | 97.5%
COc1ccc(CCN2C(=O)CC(C(=O)O)S/C2=N\c2ccc(Cl)cc2)cc1OC (centres unmarked) [CBK263286] | 93.9%
O=C(CSc1nnc(-c2ccccc2)[nH]1)c1cccc([N+](=O)[O-])c1 [CBK263287] | 91%
Cc1nc2sccn2c1-c1csc(Nc2cccc(C(=O)O)c2)n1 [CBK263291B] | 91.9%
CCOc1ccc(S(=O)(=O)N2CCSC2c2ccc(OC)c([N+](=O)[O-])c2)cc1 (centres unmarked) [CBK263293] | 101%
Cc1nc2ncccn2c1-c1csc(Nc2ccc(S(N)(=O)=O)cc2)n1 [CBK263294B] | 84.8%
COc1ccccc1OCCOc1ccc(/C=N/n2cnnc2)cc1 [CBK263295] | 106%
Cc1nc(C)c(-c2csc(Nc3ncccn3)n2)s1 [CBK263297B] | 87.4%
O=C(CCCN1C(=O)c2cccc3cccc(c23)C1=O)N1CCN(C/C=C/c2ccccc2)CC1 [CBK263300C] | 103%
COc1ccc(S(=O)(=O)N2CCN(CCN3C(=O)c4cccc5cccc(c45)C3=O)CC2)cc1[N+](=O)[O-] [CBK263301] | 102%
Cc1ccn2c(-c3csc(Nc4ccc(S(N)(=O)=O)cc4)n3)c(C)nc2c1 [CBK263304B] | 63.7%
CCCOc1ccc(C(C)=O)cc1CC(C(N)=O)C(N)=O [CBK263309] | 90.6%
CC1(C)Cc2nc3nc(SCC(=O)c4ccc(Br)cc4)n(-c4ccccc4)c(=O)c3cc2CO1 [CBK263310] | 91%
CN1CCN(Cc2c(O)ccc3c(=O)c(-c4ccc(Cl)cc4)coc23)CC1 [CBK263314] | 102%
COc1cccc(C(=O)N2CCN(C(=O)c3cccc(F)c3)CC2)c1OC [CBK263316] | 105%
Cc1ccc(C(=O)C2=C(O)C(=O)N(CCCn3ccnc3)C2c2cccc([N+](=O)[O-])c2)cc1 (centres unmarked) [CBK263319] | 115%

Compound | viability at 28.5 h, 10 µM
CC(=O)C1=C(O)C(=O)N(CCN2CCNCC2)C1c1cccc([N+](=O)[O-])c1 (centres unmarked) [CBK263320] | 101%
Cc1ccc(-n2c(C)cc(/C=N/NC(=O)c3ccc(CN4CCOCC4)cc3)c2C)cc1 [CBK263324] | 86.8%
O=C(N/N=C/c1ccc(O)cc1O)c1[nH]c2ccc([N+](=O)[O-])cc2c1-c1ccccc1 [CBK263328] | 69.7%
Cc1ccc(N(CC(=O)Nc2cccnc2)S(=O)(=O)c2ccc(F)cc2)cc1 [CBK263332] | 93.8%
Cc1ccc(N(CC(=O)Nc2ccccc2F)S(=O)(=O)c2ccc(F)cc2)cc1 [CBK263333] | 91.9%
CS(=O)(=O)N(Cc1ccc(Cl)cc1)c1ccc(C(=O)Nc2cccnc2)cc1 [CBK263334] | 95.3%
O=C(CCCSc1nc2sc3c(c2c(=O)[nH]1)CCCC3)NCCO [CBK263336] | 90.9%
N#Cc1ccccc1/C=N/NC(=O)COc1ccc(-c2cc(-c3ccccc3)c3cc(Cl)ccc3n2)cc1 [CBK263337] | 89.1%
COc1ccc2c(c1)-c1c(ss/c1=N\c1ccc(S(N)(=O)=O)cc1)C(C)(C)N2 [CBK263339] | 88.7%
COc1ccc(CN2CCN(Cc3ccccc3[N+](=O)[O-])CC2)c(OC)c1 [CBK263340] | 91%
O=C(Nc1ccc(Cl)c(Cl)c1)Nc1ccccc1C(=O)O [CBK263344] | 82%
O=C(Cc1ccc([N+](=O)[O-])cc1)Nc1cc(C(=O)O)cc(C(=O)O)c1 [CBK263345] | 100%
Cc1sc(NC(=O)CN2CCOCC2)c(C(=O)c2ccccc2)c1C [CBK263346] | 109%
COc1ccc(Br)cc1CN1CCN(Cc2cccc([N+](=O)[O-])c2)CC1 [CBK263347] | 91.6%
CCOC(=O)c1c(NC(=O)CC2Sc3ccccc3NC2=O)sc(C)c1C (centres unmarked) [CBK263349] | 93.5%
CCOC(=O)CSc1nnc(-c2ccncc2)n1-c1ccccc1 [CBK263350] | 92%
Cc1ccc(S(=O)(=O)N(CC(O)Cn2c3ccc(Cl)cc3c3cc(Cl)ccc32)c2ccccc2)cc1 (centres unmarked) [CBK263353] | 92.2%
Cc1cccc(C)c1OCC(=O)Nc1c[nH]c(=O)[nH]c1=O [CBK263358] | 46.2%
COc1ccc(Br)cc1/C=N/NC(=O)CC1C(=O)NN=C1C (centres unmarked) [CBK263359] | 99.2%
O=C(O)c1cc(NC(=O)c2ccco2)cc(C(=O)O)c1 [CBK263360] | 102%
COc1ccc(/C=C(/NC(=O)c2cccc([N+](=O)[O-])c2)C(=O)O)cc1OC [CBK263362] | 97.1%
O=C(COc1ccc(-c2cc(-c3ccccc3)c3cc(Cl)ccc3n2)cc1)N/N=C/c1ccc2ncccc2c1 [CBK263365] | 95.8%
CC(C)(C)c1ccc(OCc2nnc(Sc3nc4ccc([N+](=O)[O-])cc4s3)n2-c2ccccc2)cc1 [CBK263366] | 105%
O=C(C1=C(O)C(=O)N(Cc2cccnc2)C1c1ccc(Cl)cc1Cl)c1ccccc1 (centres unmarked) [CBK263367] | 101%
O=C1c2ccccc2C(=O)N1c1ccc2nc(SCc3nc4ccccc4[nH]3)sc2c1 [CBK263368] | 95%
COC(=O)c1c(NC(=O)COc2ccc(Br)cc2)sc2c1CCC2 [CBK263369] | 89.9%

Compound | viability at 28.5 h, 10 µM
COc1ccc(Cn2c(-c3ccc(OC)c(O)c3)nc3ccccc32)cc1O [CBK263370] | 108%
COc1ccc(S(=O)(=O)N2CCN(C(=O)COc3ccc4ccccc4c3)CC2)cc1 [CBK263371] | 91.5%
O=C(O)c1cccnc1SC1CC(=O)N(Cc2ccccc2)C1=O (centres unmarked) [CBK263375] | 119%
CC(C)(C)c1cc(Br)ccc1OCC(=O)Nc1nc[nH]n1 [CBK263379] | 96.1%
CCOC(=O)c1c(NC(=O)CC2Nc3ccccc3NC2=O)sc(C)c1C (centres unmarked) [CBK263381] | 94.2%
CCc1n[nH]c(C(=O)N/N=C/c2cccnc2)c1C [CBK263386] | 90.4%
COc1ccc(N2C(=O)CC(Sc3ncccc3C(=O)O)C2=O)cc1 (centres unmarked) [CBK263387] | 95.5%
O=C(O)c1cc(NC(=O)c2ccco2)cc(NC(=O)c2ccco2)c1 [CBK263388] | 91.8%
O=C(N/N=C\c1ccccc1C(F)(F)F)c1ccc(=O)[nH]n1 [CBK263389] | 100%
CCc1ccc(/C=C2/SC(=S)N(CCC(=O)O)C2=O)cc1 [CBK263390] | 120%
Cc1ccc(S(=O)(=O)N(CCO)CC(O)Cn2c3ccc(Cl)cc3c3cc(Cl)ccc32)cc1 (centres unmarked) [CBK263392] | 97.6%
O=C(O)c1ccccc1-c1ccccc1C(=O)NCCc1ccccc1 [CBK263394] | 113%
CCOc1ccc(NC(=O)c2ccc(S(=O)(=O)N(C)C)cc2)c([N+](=O)[O-])c1 [CBK263396] | 90.6%
COc1ccc(-n2c(SCC(=O)c3ccccc3)nc(O)c(Cc3ccccc3)c2=O)cc1 [CBK263398] | 97.7%
COc1cc(CN2CCN(Cc3ccncc3)CC2)cc(OC)c1O [CBK263401] | 80.6%
Cc1ccccc1CN1CCN(CC2CC3C=CC2C3)CC1 (centres unmarked) [CBK263402] | 88%
O=C(c1ccccc1F)N1CCN(C2CCN(Cc3ccccc3)CC2)CC1 [CBK263404] | 93.3%
O=C(CSc1nnc(-c2ccccc2)c(-c2ccccc2)n1)Nc1ccc([N+](=O)[O-])cc1 [CBK263406] | 109%
COc1cc(CN2CCN(C3CCCCC3)CC2)cc(OC)c1OC [CBK263407] | 99.1%
O=C(O)c1cc(S(=O)(=O)N2CCCCC2)c(Cl)cc1N1CCCCC1 [CBK263408] | 93.5%
COc1cc2c(cc1NC(=O)c1ccc(C)c([N+](=O)[O-])c1)oc1ccccc12 [CBK263411] | 91.9%
COc1ccc(-c2nc3cc(NC(=O)COc4ccccc4[N+](=O)[O-])ccc3o2)cc1Cl [CBK263412] | 99.2%
CC1=C(C#N)c2nc(N)c(C#N)c(C)c2/C1=C\c1ccc(-c2ccc(C(=O)O)cc2)o1 [CBK263415] | 105%
O=C1c2ccccc2C(=O)N1CCCSc1nnc(-c2ccncc2)n1-c1ccccc1 [CBK263419] | 102%

Same assay, conditions: human, hela cells, % viability, bulk resorufin, single well

Compound | viability at 28.5 h, 10 µM
CCOc1ccc(N2C(=O)/C(=C/c3ccc(Br)cc3)C(=O)NC2=S)cc1 [CBK263305] | 92.7%
N#CC(CCN1CCOCC1)(c1ccccc1)c1ccccc1 [CBK263317] | 90.5%
CCc1ccc(N2C(=O)/C(=C/c3ccc(OCC(=O)O)c(Br)c3)C(=O)NC2=S)cc1 [CBK263325] | 96.4%
CCN(CC)S(=O)(=O)c1ccc(N/C=C2/C(=O)NC(=O)N(c3ccccc3)C2=O)cc1 [CBK263372] | 89.9%
O=C(O)COc1c(Cl)cc(C=C2C(=O)NC(=O)NC2=O)cc1Cl [CBK263377] | 83%
O=C(O)COc1c(Cl)cc(/C=C2\C(=O)NC(=S)N(c3ccc(F)cc3)C2=O)cc1Cl [CBK263391] | 107%
CC1(C)CC(=O)C(C2(O)C(=O)Nc3ccc(Br)cc32)CO1 (centres unmarked) [CBK263410] | 92.3%
